Data published in ChEMBL document CHEMBL1151282, “Flavonoids and benzene derivatives from the flowers and fruit of Tetrapanax papyriferus” (J Nat Prod, 2005).

experiment: Toxicity in brine shrimp after 24 hrs; type: organism-based; conditions: artemia, in vivo

Point of comparison: `CC(=O)Oc1ccc(-c2oc3cc(OC(C)=O)cc(O)c3c(=O)c2OC(C)=O)cc1`, LC50 at 24 h 2210 µM. Against it:
- C[C@@H]1O[C@@H](Oc2cc(O)c3c(=O)c(O)c(-c4ccc(O)cc4)oc3c2)[C@H](OC(=O)/C=C/c2ccc(O)cc2)[C@H](OC(=O)/C=C/c2ccc(O)cc2)[C@H]1O — 5.5-fold lower, 400 µM
- C[C@@H]1O[C@@H](Oc2cc(O)c3c(=O)c(O)c(-c4ccc(O)cc4)oc3c2)[C@H](OC(=O)/C=C/c2ccc(O)cc2)[C@H](O)[C@H]1O — 3.9-fold lower, 570 µM
